# Experimental data published in patent US7977434B2, “Polymeric hydrophobic aminonitrile quats used for bleach activation” (BASF Aktiengesellschaft, priority 2005, dated 2011).
# Assays:
# Conditions in all cases: 25° C., 1% bleach activator, 15% by weight sodium percarbonate in color laundry detergent, 30 min wash
# [1] = Launderometer bleaching test, curry stain
# Method: (§1) Standard test in a launderometer with 5% activator addition at 25° C. and 50° C. of tea-, red wine-, grass- and curry-stained fabric. In addition, the removal of triolein and olive oil stains from cotton fabric is investigated. To this end, triolein and olive oil are dyed with 0.1% Sudan red 7 B (=Solvent Red 19). This dye is dissolved and homogenized beforehand with gentle warming. The preparation is effected by adding dropwise with a pipette, in the course of which the test fabric is stretched. 0.1 g of the solution is added dropwise and spreads on the fabric overnight. All test specimens are determined twice.
# (§2) To this end, 15% by weight of bleach (sodium percarbonate) and 1.2 and 5% by weight of the appropriate activator are mixed into a commercial color laundry detergent which is homogenized in dry form.
# (§3) The bleaching experiments in the launderometer are evaluated by reflectance measurement and calculation of the bleaching action on the bleachable stains used (tea, red wine, grass, curry, triolein and olive oil). The standard deviation of the reflectance R is <1%.
# (§4) Mixing of stock hardness 1 (Ca^+++Mg^++) and stock hardness 2 (NaHCO3), both 0.8 mol/l in each case. Hard water is tested before use. The water hardness is determined by using Titriplex solution. • Stock hardness 1 94.09 g of calcium chloride 2H2O and 32.53 g of magnesium chloride. […]
# [2] = Launderometer bleaching test, red wine stain
# Method: as §1, §2
# The bleaching experiments in the launderometer are evaluated by reflectance measurement and calculation of the bleaching action on the bleachable stains used (tea, red wine, grass, curry, triolein and olive oil). The standard deviation of the reflectance R is <1%. […]
# Mixing of stock hardness 1 (Ca^+++Mg^++) and stock hardness 2 (NaHCO3), both 0.8 mol/l in each case. […] The water hardness is determined by using Titriplex solution. • Stock hardness 1 94.09 g of calcium chloride 2H2O and 32.53 g of magnesium chloride. […]
# [3] = Launderometer test, removal of olive oil stain dyed with Sudan red 7 B
# Method: as §1, §2, §3, §4
# [4] = Launderometer bleaching test, tea stain
# Method: as §1, with “Standard test in a launderometer with 5% activator addition at 25° C. and 50° C. of tea-, red wine-, grass- and curry-stained fabric.” left out
# (§5) The bleaching experiments in the launderometer are evaluated by reflectance measurement and calculation of the bleaching action on the bleachable stains used (tea, red wine, grass, curry, triolein and olive oil).
# (§6) Commercially unavailable stains such as tea, chlorophyll were premeasured individually.
# as §4
# [5] = Launderometer test, removal of triolein stain dyed with Sudan red 7 B
# Method: as §1, §2, §3, §4
# [6] = Launderometer bleaching test, grass stain
# Method: as §1, with “Standard test in a launderometer with 5% activator addition at 25° C. and 50° C. of tea-, red wine-, grass- and curry-stained fabric.” left out
# as §5, §6, §4
Compound,"reflectance, Curry [1]","reflectance, Red wine [2]","reflectance, Olive oil [3]","reflectance, Tea [4]","reflectance, Triolein [5]","reflectance, Grass [6]"
"C[N+]1(CC#N)CCOCC1.O=S(=O)([O-])O [BMG, methylmorpholinioacetonitrile hydrogensulfate]",69.2%,61.8%,39.9%,48.5%,42.2%,40.1%
"CC(=O)N(CCN(C(C)=O)C(C)=O)C(C)=O [TAED, tetraacetylethylenediamine]",65.1%,58.4%,40.0%,34.5%,42.6%,39.2%
